Experimental data from US20080026952A1, “HCV replicon shuttle vectors” (priority 2005, published 2008).

Assays:
[1] = test system: HCV replicon containing NS5B from Clinical Isolate Pt 8 in Huh7 cells; test: Transient replicon phenotypic assay (firefly luciferase), patient-derived NS5B Pt 8; type: cell-based, HCV genotype 1a; conditions: Hepatitis C virus, genotype 1a, Huh-7, 72 h, read-out: 2′-C-Me-C IC50
Protocol: (§1) Five micrograms of DNA plasmids were linearized by Sca I restriction enzyme (Roche). After overnight digestion at 37° C., the DNA was purified using Qiagen PCR purification kit. One microgram of linearized DNA was used for the in vitro transcription using T7 Mega script kit following manufacturer's protocol (Ambion). After 2 hours of incubation at 37° C., DNase treatment was performed for 30 minutes at 37° C. to remove the DNA template. In vitro transcribed RNA was then purified using NucAway Spin Column following manufacturer's protocol (Ambion).
(§2) Cured hepatoma cell line Huh7 were cultured at 37° C. in a humidified atmosphere with 5% CO2 in Dulbecco's Modified Eagle Medium (DMEM) supplemented with Glutamax™ and […] sodium pyruvate (Cat #10569-010). The medium was further supplemented with 10% (v/v) FBS (Cat #16000-036) and 1% (v/v) penicillin/streptomycin (Cat #15140-122). All reagents were from Invitrogen/Gibco.
(§3) Four million cured Huh7 cells were transfected with 5 μg of in vitro transcribed RNA using electroporation. […] Inhibitors were added 24 hours post-transfection in 3 fold dilutions at a final DMSO concentration of 1% and firefly luciferase reporter signal was read 72 hours after addition of inhibitors using the Luciferase Assay system (Promega, cat #E1501). […]

[2] = test system: HCV replicon pSS-1_1a_NS5B_5′AsiSI_3′RsrII in Huh7 cells; test: Transient replicon phenotypic assay (firefly luciferase), reference shuttle vector; type: cell-based, HCV genotype 1a (H77); conditions: Hepatitis C virus, Huh-7, 72 h, read-out: 2′-C-Me-C IC50
Protocol: as §1, §2, §3

[3] = test system: HCV replicon containing NS5B from Clinical Isolate Pt 9 in Huh7 cells; test: Transient replicon phenotypic assay (firefly luciferase), patient-derived NS5B Pt 9; type: cell-based, HCV genotype 1a; conditions: Hepatitis C virus, genotype 1a, Huh-7, 72 h, read-out: 2′-C-Me-C IC50
Protocol: as §1, §2, §3

[4] = test system: HCV replicon containing NS5B from Clinical Isolate Pt 5 in Huh7 cells; test: Transient replicon phenotypic assay (firefly luciferase), patient-derived NS5B Pt 5; type: cell-based, HCV genotype 1a; conditions: Hepatitis C virus, genotype 1a, Huh-7, 72 h, read-out: 2′-C-Me-C IC50
Protocol: as §1, §2, §3

[5] = test system: HCV replicon containing NS5B from Clinical Isolate Pt 6 in Huh7 cells; test: Transient replicon phenotypic assay (firefly luciferase), patient-derived NS5B Pt 6; type: cell-based, HCV genotype 1a; conditions: Hepatitis C virus, genotype 1a, Huh-7, 72 h, read-out: 2′-C-Me-C IC50
Protocol: as §1, §2, §3

[6] = test system: HCV replicon containing NS5B from Clinical Isolate Pt 7 in Huh7 cells; test: Transient replicon phenotypic assay (firefly luciferase), patient-derived NS5B Pt 7; type: cell-based, HCV genotype 1a; conditions: Hepatitis C virus, genotype 1a, Huh-7, 72 h, read-out: 2′-C-Me-C IC50
Protocol: as §1, §2, §3

[7] = test system: HCV replicons with NS5B from genotype-1a and genotype-1b clinical isolates in Huh-7 cells; test: Sensitivity of treatment naive NS5B clinical isolates versus reference replicons (FIG. 3); type: cell-based, HCV genotype-1a and genotype-1b; conditions: pools of 96 clones per isolate, reference replicons Con1 (genotype-1b) and H77 (genotype-1a)
Protocol: Four million cured Huh7 cells were transfected with 5 μg of in vitro transcribed RNA using electroporation. Cells were then resuspended in 7.2 ml of DMEM containing 5% FBS and plated in 96-well plate at 50000 cells/well (in 90 μl final volume). Inhibitors were added 24 hours post-transfection in 3 fold dilutions at a final DMSO concentration of 1% and firefly luciferase reporter signal was read 72 hours after addition of inhibitors using the Luciferase Assay system (Promega, cat #E1501). The IC50 values were assessed as the inhibitor concentration at which a 50% reduction in the level of firefly luciferase reporter was observed as compared to the level of firefly luciferase signal without the addition of compounds. Results of studies testing the inhibitory effects of the compound, 2′-C-Methyl-Cytidine, on replication of pSS-1—1a_NS5B—5′AsiSI—3′RsrII and replicons with patient-derived NS5B sequences are shown in Table 2.
In order to test the sensitivity of HCV polymerase inhibitors across genetically diverse and treatment naive clinical isolates, the NS5B coding region from the isolates was amplified and cloned into the replicon shuttle replicons (clinical isolates from genotype-1a were cloned into pSS-1—1a—5′AsiSI_lacZAmC—3′RsrII and genotype-1b clinical isolates were cloned into pSC—1b—5′AsiSI_lacZAmC—3′RsrII). 96 molecular clones were pooled for each clinical isolate. […]

| SMILES | IC50 [1] [nM] | IC50 [2] [nM] | IC50 [3] [nM] | IC50 [4] [nM] | IC50 [5] [nM] | IC50 [6] [nM] | potency across the NS5B clinical isolates as compared to the reference replicons [7] |
| --- | --- | --- | --- | --- | --- | --- | --- |
| C[C@@]1(O)[C@H](O)[C@@H](CO)O[C@H]1n1ccc(N)nc1=O [2′-C-Me-C, 2′-C-Methyl-Cytidine] | 400 ± 70 | 400 ± 30 | 400 ± 60 | 300 ± 50 | 300 ± 40 | 300 ± 50 |  |
| C1=NNSc2ccccc21 [benzothiadiazine] |  |  |  |  |  |  | variable potencies |
| O=C(O)c1cccs1 [thiophene-2-carboxylic acid] |  |  |  |  |  |  | variable potencies |
